Measurements as given in patent publication US20150219673A1, “THE USE OF GENE EXPRESSION PROFILING AS A BIOMARKER FOR ASSESSING THE EFFICACY OF HDAC INHIBITOR TREATMENT IN NEURODEGENERATIVE CONDITIONS” (Massachusetts Institute of Technology, priority 2012, published 2015).

Tests used:
[1] = system: peripheral blood mononuclear cells of 5XFAD mice; test: RNA sequencing of peripheral blood mononuclear cells of 5XFAD mice after CI-994 treatment; format: in vivo, mouse; conditions: PBMC, CI-994 1 mg/kg i.p. every other day 1 month, FIG. 2
Method: After completion of treatment, blood was drawn and peripheral blood mononuclear cells were rapidly isolated. The cells were washed with PBS and total RNA was extracted using the RNeasy kit (Qiagen). RNA integrity was analyzed using the Bioanalyzer 2100 (Agilent) and the libraries were prepared using the Ovation Ultralow Library System kit (NuGen). Libraries were then pooled in equal amounts and high-throughput sequencing was performed on an Illumina HiSeq 2000 platform. Two individual biological replicates per condition were sequenced.

cognitive function = conditions: cited from earlier work

## CC(=O)Nc1ccc(C(=O)Nc2ccccc2N)cc1 [CI-994, 4-(acetylamino)-N-(2-aminophenyl)benzamide]
[1]
  number of differentially expressed genes (wild type vs 5XFAD) rescued to control levels: 69 genes
Cognitive function; earlier finding stated for CI-994
  AD-related cognitive impairments: reduce AD-related cognitive impairments
Cognitive function; see US 2011/0224303
  cognitive function in vivo: improve cognitive function in vivo
